Results from US20240315952A1, “PERSONAL CARE COMPOSITION” (Conopco, Inc., d/b/a UNILEVER, priority 2020, published 2024).

Test system: IL-1α
Assay: IL-1α expression in EpiKutis living skin equivalent (LSE) stressed with 1% SQOOH, human immunoassay kit
Format: cell-based
Settings: levels are raw material wt %; for IL-1α level: EpiKutis 3D reconstructed human epidermis, sample applied topically, then 3 μL of 1% SQOOH, after 72 hours; for Inhibition: inhibition of IL-1α vs 1% SQOOH control, EpiKutis LSE, 72 hours
Procedure: EpiKutis® living skin equivalent (LSE), is a 3D reconstructed human epidermis model with Chinese human keratinocytes through air-liquid interface culture in a defined serum free medium, supplied by supplied by Biocell (Xi'an, China). Squalene monohydroperoxide (SQOOH), a stress surrogate, was prepared in house, by subjecting squalene to solar irradiation in the presence of a sensitizer.
The SQOOH was diluted using squalene. The moringa oil was dissolved in DMSO (dimethyl sulfoxide) at a concentration of 100 mM to form a stock solution. The samples in Table 1 were prepared accordingly by diluting the materials except moringa oil and/or stock solution with PBS (phosphate-buffered saline) to the desired levels as indicated in Table 1 before use for further experiment.
The sample was applied topically to the LSE followed by application of 3 μL of 1% SQOOH. The medium was then refreshed with interval of 24 hours. After 72 hours, the tissues were collected for histology and to test the extent of viability. The IL-1a expression was evaluated using a human immunoassay kit from R&D systems (Cat. DLA 50) and tested following the manufacturer's instructions.

SMILES	IL-1α level [pg/mL]	Inhibition [%]
NC(=O)c1cccnc1 [Sample 6, Niacinamide]	5.8 ± 0.60	33.57
NC(=O)c1cccnc1 [Sample 5, Niacinamide]	6.6 ± 0.63	25.33
